The test system of experiment [1] is brain. To be noted: MRI, mice; ref [19]; cited from earlier work. On the procedure:
Previously, cyclic cHAVc1 (cyclo(1,8)Ac-CSHAVASC-NH2) and cHAVc3 (cyclo(1,6)Ac-CSHAVC-NH2) were prepared and compared to a linear HAV4 (Ac-SHAVAS-NH2) in modulating the intercellular junctions in vitro and in vivo [19].

For a further experiment, the system named is MDCK cell monolayers. As to conditions: ref [19], cited from earlier work. On the procedure:
Previously, cyclic cHAVc1 (cyclo(1,8)Ac-CSHAVASC-NH2) and cHAVc3 (cyclo(1,6)Ac-CSHAVC-NH2) were prepared and compared to a linear HAV4 (Ac-SHAVAS-NH2) in modulating the intercellular junctions in vitro and in vivo [19]. […] An alanine scanning study was carried out to evaluate the role of each amino acid in HAV6 peptide, and the biological activity of each alanine mutant peptide was evaluated in lowering the TEER values of MDCK cell monolayers. Mutation of the Ser1 to Ala1 residue reduced the junction modulatory activity of the HAV6 mutant; ...

The subject of experiment [2] is BBB. To be noted: disulfide cyclic peptides vs parent linear peptides; ref [19],[20]; cited from earlier work. The text has this: The goal of this study was to design and synthesize novel cyclic peptides derived from HAV6 and ADTC5 peptides to improve their BBB modulatory activity and selectivity by forming a peptide bond from the N- to C-termini (Table 1, Figure 1). The hypothesis is that the formation of N-to-C-termini cyclic peptides increases the backbone rigidity of the peptide to improve binding affinity and selectivity for the EC1 domain of cadherin as well as improving plasma stability of the cyclic peptide compared to its parent linear peptide. Previously, cHAVc3 and ADTC5 cyclic peptides were formed using a dis ...

For the next experiment, the target named is T1, EC1 domain of E-cadherin (Homo sapiens, UniProt P12830).
T1 sequence (P12830 155-262 limits assumed): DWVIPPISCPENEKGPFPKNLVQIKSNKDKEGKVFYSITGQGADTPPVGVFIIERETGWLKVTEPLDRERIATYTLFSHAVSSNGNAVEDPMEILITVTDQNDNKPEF
To be noted: NMR studies; ref [26]; cited from earlier work. The text has this: Cadherin peptides interrupt the cadherin–cadherin interactions by binding to the extracellular domains of cadherins allowing delivered molecules to pass through the […] of the BBB. […] Using the X-ray structure of C-cadherin as a model, it is seen that the cadherin molecules can form cis- and trans-interactions with each other in a homotypic fashion. The cis-cadherin interactions were formed via binding of the EC1 domain from one ca ...

In experiment [3] the test system is brain (C57BL/6 mice). As to conditions: peptide 13 µmol/kg, albumin 21.6 nmol/kg; ref not given; cited from earlier work. The text has this:
Treating brain diseases is a challenge as it is difficult to deliver drugs through the BBB into the brain. As many approaches to solve this problem have failed clinically, it is important to investigate new methods to improve brain delivery of molecules for diagnosing and treating brain diseases. This study was focused on designing, synthesizing, and evaluating new cyclic peptides for modulating the BBB to increase paracellular protein delivery into the brain. […] It is proposed that the rigidity imposed on the peptide backbone of the cyclic peptide reduced the ensemble ...

The test system of experiment [4] is brain (C57BL/6 mice). To be noted: recent studies, ref not given; cited from earlier work. An excerpt:
Treating brain diseases is a challenge as it is difficult to deliver drugs through the BBB into the brain. As many approaches to solve this problem have failed clinically, it is important to investigate new methods to improve brain delivery of molecules for diagnosing and treating brain diseases. This study was focused on designing, synthesizing, and evaluating new cyclic peptides for modulating the BBB to increase paracellular protein delivery into the brain.

The test system of experiment [5] is brain. To be noted: cited from earlier work. On the procedure:
(§1) Several attempts have been made to overcome this challenge using various invasive and non-invasive methods. Intracerebral ventricular (ICV) delivery is an invasive injection technique in which drug substances are administered directly into the cerebrospinal fluid in cerebral ventricles. Alternatively, many non-invasive methods have been investigated in vivo with various levels of success using receptor-mediated drug delivery systems, liposomes, microbubble-enhanced diagnostic ultrasound (MEUS), and nanoparticles. The most successful non-invasive method for delivering drugs to ...

The test system of experiment [6] is medulloblastoma brain tumor. To be noted: ref [24], cited from earlier work. On the procedure:
as §1

Experiment [7] concerns BBB. As to conditions: ref [22], cited from earlier work. An excerpt: Treating brain diseases is a challenge as it is difficult to deliver drugs through the BBB into the brain. As many approaches to solve this problem have failed clinically, it is important to investigate new methods to improve brain delivery of molecules for diagnosing and treating brain diseases. This study was focused on designing, synthesizing, and evaluating new cyclic peptides for modulating the BBB to increase paracellular protein delivery into the brain. […] This is because it is dangerous to keep the BBB open for a long period of time, allowing unwanted molecules to enter the brain. However, it is necessary to maintain the opening for an adequate amount of time to allow the delivered molecule to enter the brain with the necessary dose. For example, HAV6 has an opening window of less than 1 h to allow a small molecule such as IRdye-R800 and gadopentetic acid (Gd-DTPA) to enter the brain, while ADTC5 has a durati ...

Experiment [8] deals with BBB. As to conditions: cited from earlier work. On the procedure: The duration of time of the BBB opening is an important factor to consider for using cadherin peptides to deliver molecules to the brain. This is because it is dangerous to keep the BBB open for a long period of time, allowing unwanted molecules to enter the brain. However, it is necessary to maintain the opening for an adequate amount of time to allow the delivered molecule to enter the brain with the necessary dose. For example, HAV6 has an opening window of less than 1 h to allow a small molecule such as IRdye-R800 and gadopentetic acid (Gd-DTPA) to enter the brain, while ADTC5 has a durati ...

A further experiment deals with brains of C57BL/6 mice. Nature of the experiment: In vivo brain delivery of IRdye800CW-IgG mAb (NIRF quantification). As to conditions: n = 3. On the procedure: The activity of each peptide in enhancing BBB penetration was evaluated by delivering IRdye800CW donkey anti-goat IgG mAb in C57BL/6 mice; the amounts of mAb in the brain were determined using near infrared fluorescence (NIRF) imaging. Each group contains 3 mice per group (n = 3) with a mixture of male and female mice, selected randomly for each arm of the study. The injection solution was prepared by adding 600 µL PBS into 0.5 mg lyophilized IgG mAb; then, approximately 1.5 mg lyophilized peptide was added into the mixture yielding the injectable formulation. A 100 µL solution of a mixture containing IgG mAb (21.6 nmol/kg) along with 13 µmol/kg peptide was administered via tail vein. As a control, 100 µL of IgG mAb alone was administered via i.v. route. After the delivered molecules had been circulating for 15 min, the mice were sacrificed; then, a mixture of PBS with 0.5% Tween-20 was administered for cardiac perfusion to remove the blood and delivered molecules from the brain microvessels. The brain and other organs such as lung, heart, spleen, liver, and kidney were harvested and rinsed with PBS. The isolated organs were scanned with Odyssey® CLx for mAb quantification.
The brain deposition of IgG mAb was also quantified by NIRF imaging in brain homogenates. The isolated brains were mechanically homogenized in 2.0 mL of PBS. To make the standard solutions, IRDye800CW IgG mAb stock solution (70 µg/mL) was prepared; it was then diluted with various amounts of PBS to make six different mAb concentrations. To generate a calibration curve, the brain homogenate (200 µL) was aliquoted out to a 96-well plate. A total of 10 µL of each concentration of IgG mAb was added to three different wells of blank brain homogenates. The standard spiked homogenates were at a range of 10–200 ng/mL IgG mAb in brain homogenate. The wells were scanned using the Odyssey® CLx scanner, and the signal intensities vs. concentrations of mAb per gram of brain were used to generate a calibration curve.
ANOVA with Student–Newman–Keuls was used to compare the data for determining statistical significance for IgG mAb deposition in the brains. A p-value of less than 0.05 was used as a criterion for a significant difference in data comparison. Numeric results are presented as: mean ± SEM.
A calibration curve was generated to determine the amount of IgG mAb in the brain by spiking blank brain homogenates with a concentration range from 10 to 200 ng/mL, and good linearity with R^2 ≥ 0.98 was achieved. […] The average amounts of IgG mAb in the brains of HAV6-treated and control animals were 3.4 ± 0.4 and 4.0 ± 0.5 pmol/g brain, respectively. In contrast, the average amounts of mAb in the brains of cyclic HAVN1- and HAVN2-treated mice were 8.6 ± 0.5 and 8.8 ± 0.6 pmol/g brain, respectively. The BBB modulatory activities of ADTC5, linear ADTHAV, and cyclic ADTHAV were also compared to the control (Figure 5). […] The average brain deposition of IgG mAb were 11.8 ± 0.5, 15.7 ± 0.8, and 13.3 ± 0.7 pmol/g brain for linear ADTHAV, cyclic ADTHAV, and ADTC5, respectively.

Experiment [9] relates to primary brain endothelial cell monolayers. To be noted: ref [33] Bocsik et al.; cited from earlier work. The text has this: (§2) This study was also aimed at developing cyclic ADTHAV peptide by combining important residues from the ADT peptide (i.e., ADTC5) and HAV peptide (i.e., HAV6). Because ADTC5 and HAV6 bind at different sites on the EC1 domain, combining the two active sequences could provide synergistic activity form both parent peptides on cyclic ADTHAV. In this case, cyclic ADTHAV contains the Thr-Pro-Pro-Val sequence from ADTC5 and Ser-His-Ala-Val sequence from HAV6. The hypothesis is that the combined sequence enhances BBB modulatory activity better than the parent ADTC5 and HAV6. The selection of the Thr-Pr ...

Experiment [10] deals with MDCK cell monolayers / in vivo BBB. As to conditions: vs ADTC1 or ADTC5; ref [20]; cited from earlier work.
Source text: as §2

“Also recorded” adds a separate entry of the source.

As for “cyclo(1,6)Ac-CSHAVC-NH2 (disulfide) [cHAVc3, earlier disulfide cyclic HAV peptide]”, the “in vivo brain delivery of Gd-DTPA vs HAV4, in words” value in the experiment on brain [1] is listed as “better than a linear HAV4”. For the same substance, the “lowering of TEER values of MDCK cell monolayers vs HAV4, in words” value in the experiment on MDCK cell monolayers (TEER) is recorded as “better than a linear HAV4”. For the same substance, in the experiment on MDCK cell monolayers (compared to HAV4 (and cHAVc1)), the “junction modulatory activity in MDCK cell monolayers, in words” value was “more active compared to HAV4 and cHAVc1”. Further, in the experiment on BBB [2], the “BBB modulatory activity and plasma stability vs parent linear peptides, in words” value was “enhanced BBB modulatory activity and plasma stability compared to their parent linear peptides”. At EC1 domain of E-cadherin, the “binding site on EC1 domain, in words” value is on record as “bind to the EC1 domain of E-cadherin at the interface of cis-cadherin interactions”.
“Ac-SHAVSS-NH2 [HAV6, parent linear cadherin peptide]”: the “brain delivery of albumin vs control, in words” value with brain (C57BL/6 mice) [3] is on record as “did not significantly enhance brain delivery of albumin; also recorded: no significant enhancement of albumin brain deposition”. Moreover, in the experiment on brain (C57BL/6 mice) [4], the “brain delivery of 15 kDa lysozyme vs control, in words” value is “significantly enhanced the brain delivery of 15 kDa lysozyme compared to the control”. Moreover, in the experiment on brain [5] (HAV6 and ADTC5 collectively, 14C-mannitol, PEG, daunomycin, R800, Gd-DTPA, cLABL, cIBR7, galbumin etc., ref [18],[19],[20],[21],[22],[23]), the “brain delivery of various molecules, in words” value was “increase the brain delivery of various molecules”. In addition, the “oral and brain deliveries of eflornithine, in words” value in the experiment on brain [5] (rats, ref [25]) is “simultaneously increased”. The “survival and tumor growth, in words” value in experiment [6] (adenanthin + HAV6 vs adenanthin alone or placebo) was “increased survival and suppressed tumor growth”. For the same substance, in [6] (mice with medulloblastoma brain tumor), the “delivery of adenanthin into brain, in words” value is listed as “significantly improve the delivery of an anticancer drug, adenanthin, into the brains of mice”. The “BBB penetration of galbumin with 10-min delay after peptide, in words” value in the experiment with BBB [7] (10-min delay between peptide and galbumin) is on record as “does not allow the galbumin to cross the BBB”. Moreover, the “brain deposition of galbumin, in words” value in the experiment with BBB [7] (galbumin 600 nmol/kg, living mice, MRI) was “significant brain deposition of galbumin”. Besides, the “BBB penetration of 65 kDa galbumin, delivered together with peptide, in words” value in the experiment on BBB [7] (high dose galbumin) is listed as “can increase the BBB penetration of galbumin”. Besides, the “BBB window of opening for galbumin” value in the experiment on BBB [8] (65 kDa galbumin, ref [22] for HAV6 galbumin data, none printed for ADTC5) is recorded as < 10 min. Moreover, the “opening window of BBB for small molecule (IRdye-R800 and Gd-DTPA)” value in the experiment with BBB [8] (IRdye-R800 and Gd-DTPA, ref [20],[21]) is reported as “less than 1 h”. Besides, the “binding site on EC1 domain, in words” value at EC1 domain of E-cadherin is given as “bind to the EC1 domain of E-cadherin at the interface of cis-cadherin interactions”. Moreover, in the experiment on brains of C57BL/6 mice (IgG mAb 21.6 nmol/kg with or without 13 µmol/kg peptide, i.v. tail vein, 15 min circulation, PBS/0.5% Tween-20 perfusion, NIRF (Odyssey CLx) of brain homogenate, mean ± SEM), the “amount of IgG mAb in the brain (brain deposition)” value came to 3.4 ± 0.4 pmol/g brain. Further, in the experiment on brains of C57BL/6 mice (IgG mAb 21.6 nmol/kg, peptide 13 µmol/kg i.v., 15 min, ANOVA Student–Newman–Keuls), the “brain delivery of IgG mAb compared to control (IgG mAb alone), in words” value is reported as “did not enhance brain delivery of IgG mAb compared to the control”.
As for “Ac-ADTPPV-NH2 [ADT6, linear ADT peptide of Bocsik et al]”, in [9], the “disruption of intercellular junctions (TEER), in words” value is reported as “reversibly disrupts the intercellular junctions of primary brain endothelial cell monolayers”.
On to “cyclo(1,6)Ac-CDTPPC-NH2 (disulfide) [ADTC6, earlier cyclic ADT peptide]”, for which the “activity of ADT peptide, in words” value in experiment [10] is given as “lowered the activity of ADTC6 compared to ADTC5”.

These data come from PMC6920923, “Improving In Vivo Brain Delivery of Monoclonal Antibody Using Novel Cyclic Peptides” (Pharmaceutics, 2019).
